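Step 1: Grow cells in 96-well plates. Step 2: Expose to compound for 48 hours at 5 concentrations. Step 3: Interpolate endpoints linearly; if unreached, use highest concentration. Here, GI50 denotes the concentration required for 50% inhibition of growth. TGI: concentration producing complete growth inhibition.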
Assays:
Test in all cases: growth of human tumour cells (NCI), 48 h
TK-10 renal = test system: TK-10 renal
A498 renal = test system: A498 renal
HL-60(TB) leukemia = test system: HL-60(TB) leukemia
COLO 205 colon = test system: COLO 205 colon
HT29 colon = test system: HT29 colon
NCI/ADR-RES ovarian = test system: NCI/ADR-RES ovarian
U251 CNS = test system: U251 CNS
SK-MEL-28 melanoma = test system: SK-MEL-28 melanoma
MDA-MB-435 = test system: MDA-MB-435
M14 melanoma = test system: M14 melanoma
UACC-257 melanoma = test system: UACC-257 melanoma
SF-539 CNS = test system: SF-539 CNS
UACC-62 melanoma = test system: UACC-62 melanoma
T-47D breast = test system: T-47D breast
OVCAR-4 ovarian = test system: OVCAR-4 ovarian
786-0 renal = test system: 786-0 renal
SF-268 CNS = test system: SF-268 CNS
SK-MEL-5 melanoma = test system: SK-MEL-5 melanoma
BT-549 breast = test system: BT-549 breast
OVCAR-3 ovarian = test system: OVCAR-3 ovarian
RXF 393 renal = test system: RXF 393 renal
LOX IMVI melanoma = test system: LOX IMVI melanoma
HS 578T breast = test system: HS 578T breast
MOLT-4 leukemia = test system: MOLT-4 leukemia
CCRF-CEM leukemia = test system: CCRF-CEM leukemia
HCT-116 colon = test system: HCT-116 colon
SNB-75 CNS = test system: SNB-75 CNS
HCC-2998 colon = test system: HCC-2998 colon
SK-MEL-2 melanoma = test system: SK-MEL-2 melanoma
SW-620 colon = test system: SW-620 colon
K-562 leukemia = test system: K-562 leukemia
NCI-H522 lung = test system: NCI-H522 lung
NCI-H460 lung = test system: NCI-H460 lung
RPMI-8226 leukemia = test system: RPMI-8226 leukemia
OVCAR-8 ovarian = test system: OVCAR-8 ovarian
MALME-3M melanoma = test system: MALME-3M melanoma
SR leukemia = test system: SR leukemia
OVCAR-5 ovarian = test system: OVCAR-5 ovarian

Clc1ccc2c(NCCCN3CCN(c4nc(N5CCOCC5)nc5ccccc45)CC3)ccnc2c1
GI50 (TK-10 renal): 2040 nM | TGI (TK-10 renal): 4560 nM | GI50 (A498 renal): 1570 nM | TGI (A498 renal): 3110 nM | GI50 (HL-60(TB) leukemia): 1350 nM | TGI (HL-60(TB) leukemia): 3950 nM | GI50 (COLO 205 colon): 1660 nM | TGI (COLO 205 colon): 3320 nM | GI50 (HT29 colon): 1620 nM | TGI (HT29 colon): 3710 nM | GI50 (NCI/ADR-RES ovarian): 2230 nM | TGI (NCI/ADR-RES ovarian): 4730 nM | GI50 (U251 CNS): 2150 nM | TGI (U251 CNS): 5150 nM | GI50 (SK-MEL-28 melanoma): 1880 nM | TGI (SK-MEL-28 melanoma): 3370 nM | GI50 (MDA-MB-435): 1810 nM | TGI (MDA-MB-435): 3360 nM | GI50 (M14 melanoma): 1390 nM | TGI (M14 melanoma): 2850 nM | GI50 (UACC-257 melanoma): 1770 nM | TGI (UACC-257 melanoma): 3420 nM | GI50 (SF-539 CNS): 1680 nM | TGI (SF-539 CNS): 3140 nM | GI50 (UACC-62 melanoma): 1900 nM | TGI (UACC-62 melanoma): 3360 nM | GI50 (T-47D breast): 2320 nM | TGI (T-47D breast): 5090 nM | GI50 (OVCAR-4 ovarian): 1900 nM | TGI (OVCAR-4 ovarian): 4640 nM | GI50 (786-0 renal): 1590 nM | TGI (786-0 renal): 3030 nM | GI50 (SF-268 CNS): 2210 nM | TGI (SF-268 CNS): 5510 nM | GI50 (SK-MEL-5 melanoma): 1730 nM | TGI (SK-MEL-5 melanoma): 3120 nM | GI50 (BT-549 breast): 1640 nM | TGI (BT-549 breast): 3080 nM | GI50 (OVCAR-3 ovarian): 2150 nM | TGI (OVCAR-3 ovarian): 4770 nM | GI50 (RXF 393 renal): 1650 nM | TGI (RXF 393 renal): 3100 nM | GI50 (LOX IMVI melanoma): 1980 nM | TGI (LOX IMVI melanoma): 3970 nM | GI50 (HS 578T breast): 1500 nM | TGI (HS 578T breast): 3720 nM | GI50 (MOLT-4 leukemia): 1360 nM | TGI (MOLT-4 leukemia): 3900 nM | GI50 (CCRF-CEM leukemia): 1800 nM | TGI (CCRF-CEM leukemia): 5730 nM | GI50 (HCT-116 colon): 1250 nM | TGI (HCT-116 colon): 2590 nM | GI50 (SNB-75 CNS): 1850 nM | TGI (SNB-75 CNS): 3300 nM | GI50 (HCC-2998 colon): 1770 nM | TGI (HCC-2998 colon): 3280 nM | GI50 (SK-MEL-2 melanoma): 1870 nM | TGI (SK-MEL-2 melanoma): 3490 nM | GI50 (SW-620 colon): 1620 nM | TGI (SW-620 colon): 3500 nM | GI50 (K-562 leukemia): 402 nM | TGI (K-562 leukemia): 3750 nM | GI50 (NCI-H522 lung): 1970 nM | TGI (NCI-H522 lung): 3730 nM | GI50 (NCI-H460 lung): 1910 nM | TGI (NCI-H460 lung): 3840 nM | GI50 (RPMI-8226 leukemia): 1150 nM | TGI (RPMI-8226 leukemia): 3460 nM | GI50 (OVCAR-8 ovarian): 1980 nM | TGI (OVCAR-8 ovarian): 4470 nM | GI50 (MALME-3M melanoma): 1900 nM | TGI (MALME-3M melanoma): 3490 nM | GI50 (SR leukemia): 1350 nM | TGI (SR leukemia): 4570 nM | GI50 (OVCAR-5 ovarian): 2500 nM | TGI (OVCAR-5 ovarian): 6340 nM
